The compounds below were run on MCF-7 (human) (assay: cells). Conditions: MCF-7, 72 h.

| IC50 [µM] | SMILES |
| --- | --- |
| 37 | COc1cc2ncnc(Nc3ccc(F)c(Cl)c3)c2cc1OCCCSc1nc2ccccc2o1 |
| 37.3 | COc1cc2ncnc(Nc3cccc(C(F)(F)F)c3)c2cc1OCCCSc1nc2ccccc2o1 |
| 35.9 | COc1cc2ncnc(Nc3cccc(C(F)(F)F)c3)c2cc1OCCCSc1nc2ccccc2s1 |
| 38.8 | CCCCc1nc(Cl)c(C=O)n1CCCOc1cc2c(Nc3cccc(C(F)(F)F)c3)ncnc2cc1OC |
| 32.6 | CCCCc1nc(Cl)c(C=O)n1CCCOc1cc2c(Nc3cccc(I)c3)ncnc2cc1OC |

What follows are compounds tested on A431 (human) (assay: cells). Conditions: A431, 72 h.

| IC50 [µM] | SMILES |
| --- | --- |
| 4.05 | COc1cc2ncnc(Nc3ccc(F)c(Cl)c3)c2cc1OCCCSc1nc2ccccc2o1 |
| 14.2 | COc1cc2ncnc(Nc3ccc(C)cc3)c2cc1OCCCSc1nc2ccccc2s1 |
| 20 | CCCCc1nc(Cl)c(CO)n1CCCOc1cc2c(Nc3ccc(OC)cc3)ncnc2cc1OC |
| 10 | C#Cc1cccc(Nc2ncnc3cc(OC)c(OCCCn4c(CCCC)nc(Cl)c4CO)cc23)c1 |
| 12.1 | COc1cc2ncnc(Nc3ccc(C)cc3)c2cc1OCCCSc1nc2ccccc2o1 |
| 10.6 | CCCCc1nc(Cl)c(CO)n1CCCOc1cc2c(Nc3ccc(Br)cc3CC)ncnc2cc1OC |
| 5.02 | CCCCc1nc(Cl)c(C=O)n1CCCOc1cc2c(Nc3ccc(F)c(Cl)c3)ncnc2cc1OC |
| 4.03 | COc1cc2ncnc(Nc3cccc(C(F)(F)F)c3)c2cc1OCCCSc1nc2ccccc2o1 |
| 4.05 | COc1cc2ncnc(Nc3cccc(C(F)(F)F)c3)c2cc1OCCCSc1nc2ccccc2s1 |
| 5.37 | COc1cc2ncnc(Nc3ccc(F)c(Cl)c3)c2cc1OCCCSc1nc2ccccc2s1 |
| 10.1 | C#Cc1cccc(Nc2ncnc3cc(OC)c(OCCCn4c(CCCC)nc(Cl)c4C=O)cc23)c1 |
| 17.2 | CCc1cc(Br)ccc1Nc1ncnc2cc(OC)c(OCCCSc3nc4ccccc4o3)cc12 |
| 5.87 | CCc1cc(Br)ccc1Nc1ncnc2cc(OC)c(OCCCSc3nc4ccccc4s3)cc12 |
| 9.08 | COc1cc2ncnc(Nc3ccc(OC(F)(F)F)cc3)c2cc1OCCCSc1nc2ccccc2o1 |
| 14 | CCCCc1nc(Cl)c(C=O)n1CCCOc1cc2c(Nc3ccc(OC)cc3)ncnc2cc1OC |
| 8.2 | CCCCc1nc(Cl)c(CO)n1CCCOc1cc2c(Nc3cccc(Br)c3)ncnc2cc1OC |
| 6.44 | CCCCc1nc(Cl)c(C=O)n1CCCOc1cc2c(Nc3cccc(Br)c3)ncnc2cc1OC |
| 8.28 | CCCCc1nc(Cl)c(CO)n1CCCOc1cc2c(Nc3cccc(C(F)(F)F)c3)ncnc2cc1OC |
| 13.1 | COc1ccc(Nc2ncnc3cc(OC)c(OCCCSc4nc5ccccc5o4)cc23)cc1 |
| 9.95 | CCCCc1nc(Cl)c(CO)n1CCCOc1cc2c(Nc3cccc(I)c3)ncnc2cc1OC |
| 17.7 | CCCCc1nc(Cl)c(CO)n1CCCOc1cc2c(Nc3cccc(F)c3)ncnc2cc1OC |
| 12 | CCCCc1nc(Cl)c(C=O)n1CCCOc1cc2c(Nc3cccc(F)c3)ncnc2cc1OC |
| 5.99 | CCCCc1nc(Cl)c(CO)n1CCCOc1cc2c(Nc3ccc(F)c(Cl)c3)ncnc2cc1OC |
| 14.2 | COc1ccc(Nc2ncnc3cc(OC)c(OCCCSc4nc5ccccc5s4)cc23)cc1 |
| 6.56 | CCCCc1nc(Cl)c(C=O)n1CCCOc1cc2c(Nc3ccc(Br)cc3CC)ncnc2cc1OC |
| 3.51 | CCCCc1nc(Cl)c(C=O)n1CCCOc1cc2c(Nc3cccc(C(F)(F)F)c3)ncnc2cc1OC |
| 3 | CCCCc1nc(Cl)c(C=O)n1CCCOc1cc2c(Nc3cccc(I)c3)ncnc2cc1OC |

— ChEMBL document CHEMBL1152479, “Synthesis and in vitro antitumor activities of novel 4-anilinoquinazoline derivatives” (Eur J Med Chem, 2009)
